Data from PMC11879280, “Antimicrobial activity of peptoids against Metallo-β-lactamase-producing Klebsiella pneumoniae, Acinetobacter baumannii, Pseudomonas aeruginosa, and other WHO priority pathogens, including Candida auris” (Journal of Applied Microbiology, 2025).
Read-outs that look alike come from different tables or passages of the source. Square brackets hold non-standard residues; d marks the D form. Peptide text beside a SMILES is read from it. Nspe = C[C@H](NCC(=O)O)c1ccccc1; NDecylGly = CCCCCCCCCCNCC(=O)O; Nlys = NCCCCNCC(=O)O

Experiments:
C. auris CBS12373 = experiment: Checkerboard microdilution synergy test; type: cell-based, Candida auris
Procedure: (§1) The checkerboard microdilution test was performed to determine the fractional inhibitory concentration (FIC) of selected antimicrobials and assess whether the combination had synergistic, antagonistic, or indifferent effects (Anon [2016]) against strains of K. pneumoniae or C. auris. […] Additionally, a strain susceptible to ciprofloxacin was tested to observe the outcome of its combination with TM8 as a representative case from susceptible isolates. […] Then, 10 µl of bacteria (5 × 10^6 CFU ml^−1) or C. auris (2.5 × 10^4 CFU ml^−1) were added to each well, except for the sterility control well. […] The sterility control wells contained only MHB (or RPMI in case of C. auris), and the growth control contained 110 µl of microbial inoculum with no antimicrobials. Subsequently, the plates were incubated for 18- 24 hours at 36 ± 1 °C.
(§2) The FIC for each combination interaction was calculated as follows:
(§3) Then, the summation of FIC (ƩFIC) was calculated for each antimicrobial combination as follows: ƩFIC = FICA + FICB. The results were interpretated as follows: Synergy if ƩFIC ≤ 0.5; Additive if 0.5<ƩFIC ≤ 1; Indifference if […] ≤ 4; and Antagonism if ƩFIC > 4 (Odds [2003]). All antimicrobial synergy experiments were repeated in at least two independent runs.

C. auris CBS10913 = experiment: Checkerboard microdilution synergy test; type: cell-based, Candida auris
Procedure: as §1, §2, §3

MBL-producing bacteria = experiment: Geometric mean MIC, therapeutic index and selectivity ratio, MBL-producing bacteria; type: cell-based
Procedure: Briefly, bacteria were suspended in cation-adjusted Mueller–Hinton broth (CAMHB; Oxoid, UK) for antibiotics, or MHB (Oxoid, UK) for peptidomimetics to obtain 5 × 10^5 colony forming unit (CFU) ml^−1. […] Positive controls contained only microbes, and blanks contained only media. Microbial suspensions (100 µl) were added to wells, plates wrapped, and incubated at 37°C, 120 rpm for 16–20 h. After incubation, suspensions were removed, log10 diluted, and plated on Trypticase Soya Agar with phosphatidylcholine and Tween 80 to determine minimum bactericidal or fungicidal concentration (MBC or MFC). […] Geometric mean MIC of the peptoids were calculated to evaluate the broad overview of antimicrobial activity across the pathogens.
The test was performed as per the manufacturer’s instructions. Briefly, the strips were applied to a lawn culture of bacteria maintained at 1.5 × 10^8 CFU ml^−1 on Mueller–Hinton agar (Oxoid, UK) and incubated for 20 h at 37°C.
The therapeutic indices (TIs) of the compounds were calculated with the use of following formula: […]

C. auris CBS 10913 [1] = experiment: microbe, parasite or virus in culture; type: cell-based, Candida auris; conditions: CBS 10913, 48 h
Procedure: Amphotericin B was tested in parallel as a positive control (Ramesh et al. [2023]).

[2] = system: MBL phenotypes of A. baumannii; conditions: MBL phenotypes of
Procedure: Briefly, bacteria were suspended in cation-adjusted Mueller–Hinton broth (CAMHB; Oxoid, UK) for antibiotics, or MHB (Oxoid, UK) for peptidomimetics to obtain 5 × 10^5 colony forming unit (CFU) ml^−1. […] Positive controls contained only microbes, and blanks contained only media. Microbial suspensions (100 µl) were added to wells, plates wrapped, and incubated at 37°C, 120 rpm for 16–20 h. […] Geometric mean MIC of the peptoids were calculated to evaluate the broad overview of antimicrobial activity across the pathogens.

[3] = system: C. auris CBS12373 biofilm; type: cell-based, Candida auris
Procedure: Another set of experiments was conducted under similar conditions similar to those used for MTT assay.

[4] = system: horse red blood cells (RBCs); experiment: Haemolysis assay; type: cell-based
Procedure: The haemolytic activity of the peptidomimetics was performed to determine mammalian cell safety. This assay used horse red blood cells (RBCs) (Sigma–Aldrich, USA) as described previously (Willcox et al. [2008], Chongsiriwatana et al. [2017], Yasir et al. [2019b]). RBCs were washed three times with PBS at 470 g for 5 min. Peptoids (0.5–250 μg ml^−1) were prepared in PBS and added to washed RBCs, then incubated at 37°C for 4 h. After incubation, cells were centrifuged at 1057 g for 10 min, and the supernatant’s OD at 540 nm was measured for lysis. PBS-only RBCs served as the negative control (no haemolysis), and Milli-Q water-treated RBCs as the positive control (100% lysis). Percent haemolysis was calculated as: (ODT − ODNC)/(ODPC − ODNC) × 100, where ODT, ODNC, and ODPC are the absorbances of the test, negative, and positive controls, respectively. This experiment was performed in triplicate.

A. baumannii 005 = system: A. baumannii 005
In short: (§4)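 Each strain, at 5 × 10^5 CFU ml^−1, is exposed to compound in Mueller–Hinton-based broth (cation-adjusted for antibiotics) and incubated 16–20 h, 37°C, 120 rpm. Bactericidal concentrations come from plating log10 dilutions of the wells on supplemented agar.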

E. coli 0010 = system: E. coli 0010
In short: as §4

P. aeruginosa 216 = system: P. aeruginosa 216
In short: as §4

P. aeruginosa 33 = system: P. aeruginosa 33
In short: as §4

C. auris CBS 10913 [5] = experiment: Time-kill kinetics; type: cell-based, Candida auris; conditions: RPMI, 35°C, three independent runs
Procedure: Killing kinetics (time-kill) were evaluated as described previously (Lum et al. [2015]). […] At set intervals (0, 0.5, 1, 1.5, 2, 2.5, 3, 4, 5, 6, 12, and 24 h), 100 µl samples were serially diluted in PBS and plated on Sabouraud dextrose agar (SDA; Oxoid, UK) with 0.5% polysorbate 80 (Chem-supply, SA, Australia). CFUs were enumerated, with a yeast growth control processed similarly. Results were presented from three independent runs.

[6] = system: C. auris CBS12373 biofilm; experiment: Initial biofilm inhibition, MTT reduction assay; type: cell-based, Candida auris

## CCCCCCCCCCNCC(=O)N(CCCCN)CC(=O)N(CC(=O)N(CC(=O)N(CCCCN)CC(=O)N(CC(=O)N(CC(N)=O)[C@@H](C)c1ccccc1)[C@@H](C)c1ccccc1)[C@@H](C)c1ccccc1)[C@@H](C)c1ccccc1 [TM8] (H-[NDecylGly][Nlys][Nspe][Nspe][Nlys][Nspe][Nspe]-NH2)
C. auris CBS12373
  MIC of TM8 (alone, checkerboard): 3.9 µg/mL
C. auris CBS12373; TM8 with Fluconazole
  FICTM8: 0.5
  MF of TM8 (modulation factor): 2
  ƩFIC: 0.563
C. auris CBS10913
  MIC of TM8 (alone, checkerboard): 7.813 µg/mL
C. auris CBS10913; TM8 with Fluconazole
  FICTM8: 0.5
  MF of TM8 (modulation factor): 2
  ƩFIC: 0.563
MBL-producing bacteria
  Geometric mean MICMBL: 7.8 µg/mL
C. auris CBS 10913 [1]
  MIC in the absence of ergosterol: 7.8 µg/mL
  MIC in the presence of exogenous ergosterol: 31.25 µg/mL
[2]
  MIC: ≤ 7.8 µg/mL
[3]
  MBEC for mature biofilm: 125 µg/mL
[4]
  HD10 (10% haemolytic dose): 7.2 µmol/L
  HD50 (50% haemolytic dose): 24.4 µmol/L
[4]; red cells of horse, 4 h
  HD10 (10% haemolytic dose): 8 µg/mL
  HD50 (50% haemolytic dose): 27.2 µg/mL
A. baumannii 005; 005
  MIC of peptidomimetics: 7.0 µM
A. baumannii 005; A. baumannii 005, MHB (melimine/Mel4 with 0.2% BSA, 0.01% acetic acid), mean MIC
  MIC of peptidomimetics: 7.8 µg/mL
E. coli 0010; 0010
  MIC of peptidomimetics: 14.0 µM
E. coli 0010; E. coli 0010, MHB (melimine/Mel4 with 0.2% BSA, 0.01% acetic acid), mean MIC
  MIC of peptidomimetics: 15.6 µg/mL
P. aeruginosa 216; 216
  MIC of peptidomimetics: 7.0 µM
P. aeruginosa 216; P. aeruginosa 216, MHB (melimine/Mel4 with 0.2% BSA, 0.01% acetic acid), mean MIC
  MIC of peptidomimetics: 7.8 µg/mL
P. aeruginosa 33; 33
  MIC of peptidomimetics: 3.5 µM
P. aeruginosa 33; P. aeruginosa 33, MHB (melimine/Mel4 with 0.2% BSA, 0.01% acetic acid), mean MIC
  MIC of peptidomimetics: 3.9 µg/mL
C. auris CBS 10913 [5]; 1× MIC
  Time to 3-log reduction: ≤ 6 h
  Time to complete killing of the yeast cells: ≤ 12 h
C. auris CBS 10913 [5]; 4× MIC
  Time to fungicidal activity: ≤ 2 h
[6]
  Biofilm tolerance factor-inhibition (MBIC/MIC): 2
